Experimental data taken from patent publication US12514832B2, “Methods for using low-dose colchicine after myocardial infarction” (INSTITUT DE CARDIOLOGIE DE MONTREAL, priority 2019, dated 2026).
Values joined by “and” are separate entries in the source; they are usually repeats but may differ in a detail not shown here. Equal values may be shown once.

System: rs149354567 (CDRT8/PMP22, chromosome 17); rs10811106 (SAXO1, chromosome 9)
Experiment: COLCOT pharmacogenomic GWAS and Cox / recurrent-event analyses of the primary efficacy end point by genotype
Assay type: in vivo, human
Conditions: for Primary end point, HR (95% CI) for rs149354567 minor (GA) versus major (G) allele: Cox, controlling for age, sex, C1-C10; for Recurrent primary end point events, Hazard Ratio (95% CI), Andersen-Gill model / Recurrent primary end point events, Hazard Ratio (95% CI), WLW model K = 2, 1st Event / Recurrent primary end point events, Hazard Ratio (95% CI), WLW model K = 2, 2nd Event / Recurrent primary end point events, Hazard Ratio (95% CI), WLW model K = 2, Average / Recurrent primary end point events, Rate Ratio (95% CI), Negative binomial model: colchicine vs placebo
From the text: FIG. 3 is a Manhattan plot of a Genome-wide Association Study (GWAS) with common single-nucleotide polymorphisms (SNPs) with minor allele frequency (MAF)≥5% for the primary efficacy end point using a survival analysis (coxph) regression with all patients in colchicine treatment arm (compliant ITT pgx population) in the COLCOT cohort, controlling for age, sex, principal components (C1-C10) with a threshold of 5.000E-08 (4,462,492 variants and 702 samples).
FIG. 4 is a plot of SNPs located on chromosome 17 (from 14,623,118 to 15,623,118 bp) for the primary efficacy end point using a survival analysis (coxph) regression with all patients in colchicine treatment arm (compliant ITT pgx population) in the COLCOT cohort, controlling for age, sex, principal components (C1-C10) with a threshold of 5.000E-08 (4,462,492 variants and 702 samples).
FIG. 8 is a Manhattan plot of GWAS with common SNPs with MAF≥5% for the primary efficacy endpoint using a survival analysis (coxph) regression with male patients in colchicine treatment arm (compliant ITT pgx population) in the COLCOT cohort, controlling for age, sex specific principal components (SC1-SC10) with a threshold of 5.000E-08 (4,455,743 variants and 576 samples).
FIG. 9 is a plot of single-nucleotide polymorphisms (SNPs) located on chromosome 9 (from 18,537,533 to 19,537,533 bp) for primary efficacy endpoint using a survival analysis (coxph) regression with male patients in colchicine treatment arm (compliant ITT pgx population) in the COLCOT cohort, controlling for age, sex specific principal components (SC1-SC10) with a threshold of 5.000E-08 (4,455,743 variants and 576 samples).
A Genome-wide Association Study (GWAS) was performed for the COLCOT primary efficacy end points. The primary efficacy endpoints were, the earliest occurrence of: cardiovascular death, resuscitated cardiac arrest, acute myocardial infarction, stroke, or urgent hospitalization for angina requiring coronary revascularization.
A plot of SNPs located on chromosome 17 (from 14,623,118 to 15,623, 118 bp) for the primary efficacy end point using a survival analysis (coxph) regression with all patients in colchicine treatment arm (compliant ITT pgx population) in the COLCOT cohort is shown in FIG. 4. Within this region, SNP rs149354567 was identified for further analysis (Table 10). SNP rs149354567 is intergenic for the CDR8T (CMT1A duplicated region transcript 8) gene and the PMP22 (peripheral myelin protein 22) gene.
A Cox statistical analysis for the primary endpoint comparing the chromosome 17 SNP rs149354567 minor versus major alleles by treatment arms is shown in Table 11 below.
A Cox statistical analysis for the primary end point comparing colchicine versus placebo for SNP rs149354567 genotypes is shown in Table 12 below.
The above analysis is based on time to first event among the components of the primary end point. Three other analyses were also considered to account for multiple events within subjects. These analyses make use of all events, including the ones that occur after the first. The Wei, Lin, and Weissfeld (WLW) marginal model, the Andersen and Gill (AG) model, and the negative binomial model were used.
A further region of the genome with a genetic variant, rs10811106, that, in males, is associated with efficacy of colchicine in the prevention of cardiovascular events in participants recruited within 30 days of a myocardial infarction (acute coronary syndrome) was identified using similar statistical analyses (FIG. 8). SNP rs10811106 is intronic in the SAXO1 (stabilizer of axonemal microtubules 1) gene (FIG. 9). SNP rs10811106 was associated with the primary efficacy endpoint of COLCOT (composite of cardiovascular death, resuscitated cardiac arrest, myocardial infarction, stroke, or urgent hospitalization for angina requiring coronary revascularization) in the colchicine treatment arm (P=5.8×10^−8).

[1] = colchicine arm N=2, rs149354567 genotype GA/GA
[2] = colchicine arm N=102, rs149354567 genotype G/GA
[3] = colchicine arm N=585, rs149354567 genotype G/G
[4] = colchicine arm N=689, all rs149354567 genotypes
[5] = rs10811106 chr 9, EA T vs NEA C, N 564, 30 events

COc1cc2c(c(OC)c1OC)-c1ccc(OC)c(=O)cc1[C@@H](NC(C)=O)CC2 [Colchicine, colchicine]
fewer cardiovascular events with colchicine compared to placebo (carriers of genotype G-/G- at rs149354567): 40% | Recurrent primary end point events, Hazard Ratio (95% CI) for one unit increase of rs149354567 dosage, Andersen-Gill model (colchicine arm): 4.55 (2.45; 8.46) | Recurrent primary end point events, Hazard Ratio (95% CI) for one unit increase of rs149354567 dosage, WLW model K = 2, 1st Event (colchicine arm): 5.30 (2.90; 9.70) | Recurrent primary end point events, Hazard Ratio (95% CI) for one unit increase of rs149354567 dosage, WLW model K = 2, 2nd Event (colchicine arm): 3.96 (0.99; 15.80) | Recurrent primary end point events, Hazard Ratio (95% CI) for one unit increase of rs149354567 dosage, WLW model K = 2, Average (colchicine arm): 5.28 (2.88; 9.66) | Recurrent primary end point events, Rate Ratio (95% CI) for one unit increase of rs149354567 dosage, Negative binomial model (colchicine arm): 4.58 (2.40; 8.74) | Primary end point events rate per 100 subject-months (colchicine arm N=2, genotype GA/GA): 0 per 100 subject-months | Total number of primary end point events (colchicine arm N=2, genotype GA/GA, 24 follow-up months): 0 | Primary end point, patients with events (at least one event) (colchicine arm N=2, rs149354567 GA/GA): 0 | Number of subjects with 0 primary end point events [1]: 2 | Number of subjects with 1 primary end point event [1]: 0 | Number of subjects with 2 primary end point events [1]: 0 | Number of subjects with 3 primary end point events [1]: 0 | Number of subjects with 4 primary end point events [1]: 0 | Primary end point events rate per 100 subject-months (colchicine arm N=102, genotype G/GA): 0.71 per 100 subject-months | Total number of primary end point events (colchicine arm N=102, genotype G/GA, 2678 follow-up months): 19 | Primary end point, patients with events (at least one event) (colchicine arm N=102, rs149354567 G−/GA): 17 | Number of subjects with 0 primary end point events [2]: 85 | Number of subjects with 1 primary end point event [2]: 15 | Number of subjects with 2 primary end point events [2]: 2 | Number of subjects with 3 primary end point events [2]: 0 | Number of subjects with 4 primary end point events [2]: 0 | Primary end point, patients with events (colchicine arm N=104, rs149354567 G−/GA+GA/GA): 17 | Primary end point events rate per 100 subject-months (colchicine arm N=585, genotype G/G): 0.16 per 100 subject-months | Total number of primary end point events (colchicine arm N=585, genotype G/G, 14370 follow-up months): 23 | Primary end point, patients with events (at least one event) (colchicine arm N=585, rs149354567 G−/G−): 20 | Number of subjects with 0 primary end point events [3]: 565 | Number of subjects with 1 primary end point event [3]: 17 | Number of subjects with 2 primary end point events [3]: 3 | Number of subjects with 3 primary end point events [3]: 0 | Number of subjects with 4 primary end point events [3]: 0 | Number of subjects with 0 primary end point events [4]: 652 | Number of subjects with 1 primary end point event [4]: 32 | Number of subjects with 2 primary end point events [4]: 5 | Number of subjects with 3 primary end point events [4]: 0 | Number of subjects with 4 primary end point events [4]: 0 | Primary end point events rate per 100 subject-months [4]: 0.25 per 100 subject-months | Total number of primary end point events (colchicine arm N=689, all rs149354567 genotypes, 17072 follow-up months): 42 | Primary end point, patients with events (at least one event) (colchicine arm N=689, all rs149354567 genotypes, compliant ITT pgx population): 37 | Primary end point, % of events (colchicine arm, all rs149354567 genotypes): 5.4% | Primary end point, hr per effect allele, rs75780450 (T vs C) (colchicine arm, males + females, compliant ITT pgx population): 4.611 | Primary end point, hr per effect allele, rs1854156 (C vs G) (colchicine arm, males only): 5.104 | Primary end point, hr per effect allele, rs10118790 (A vs G) (colchicine arm, males only): 5.05 | Primary end point, hr per effect allele, rs10811106 (T vs C) (colchicine arm, males only): 5.503 | Primary end point, hr per effect allele, rs10963895 (A vs G) (colchicine arm, males only): 4.191 | Primary end point, hr per effect allele, rs28733572 (C vs G) (colchicine arm, males only): 5.043 | Primary end point, % of events (colchicine arm, rs149354567 G−/GA): 16.7% | Primary end point, % of events (colchicine arm, rs149354567 G−/GA+GA/GA): 16.3% | Primary end point, % of events (colchicine arm, rs149354567 G−/G−): 3.4% | Primary end point, HR (95% CI) for rs149354567 minor (GA) versus major (G) allele (colchicine arm, compliant ITT pgx population): 5.30 (2.84-9.89) | Primary end point, HR (95% CI) for rs149354567 minor (GA) versus major (G) allele (colchicine arm, compliant ITT pgx population, listed as colchicine): 5.30 and 5.299 | Recurrent primary end point events, Hazard Ratio (95% CI), Andersen-Gill model (all rs149354567 genotypes): 0.61 (0.39; 0.96) | Recurrent primary end point events, Hazard Ratio (95% CI), WLW model K = 2, 1st Event (all rs149354567 genotypes): 0.82 (0.53; 1.28) | Recurrent primary end point events, Hazard Ratio (95% CI), WLW model K = 2, 2nd Event (all rs149354567 genotypes): 0.28 (0.10; 0.73) | Recurrent primary end point events, Hazard Ratio (95% CI), WLW model K = 2, Average (all rs149354567 genotypes): 0.80 (0.52; 1.25) | Recurrent primary end point events, Rate Ratio (95% CI), Negative binomial model (all rs149354567 genotypes): 0.57 (0.34; 0.94) | Recurrent primary end point events, Hazard Ratio (95% CI), Andersen-Gill model (rs149354567 genotype G/G): 0.48 (0.27; 0.85) | Recurrent primary end point events, Hazard Ratio (95% CI), WLW model K = 2, 1st Event (rs149354567 genotype G/G): 0.60 (0.34; 1.04) | Recurrent primary end point events, Hazard Ratio (95% CI), WLW model K = 2, 2nd Event (rs149354567 genotype G/G): 0.25 (0.07; 0.85) | Recurrent primary end point events, Hazard Ratio (95% CI), WLW model K = 2, Average (rs149354567 genotype G/G): 0.59 (0.34; 1.03) | Recurrent primary end point events, Rate Ratio (95% CI), Negative binomial model (rs149354567 genotype G/G): 0.43 (0.23; 0.82) | Recurrent primary end point events, Hazard Ratio (95% CI), Andersen-Gill model (rs149354567 genotype G/G, listed as colchicine): 0.48 | Recurrent primary end point events, Hazard Ratio (95% CI), Andersen-Gill model (rs149354567 genotype G/GA): 0.84 (0.34; 2.11) | Recurrent primary end point events, Hazard Ratio (95% CI), WLW model K = 2, 1st Event (rs149354567 genotype G/GA): 1.62 (0.69; 3.79) | Recurrent primary end point events, Hazard Ratio (95% CI), WLW model K = 2, 2nd Event (rs149354567 genotype G/GA): 0.17 (0.03; 1.02) | Recurrent primary end point events, Hazard Ratio (95% CI), WLW model K = 2, Average (rs149354567 genotype G/GA): 1.35 (0.58; 3.12) | Recurrent primary end point events, Rate Ratio (95% CI), Negative binomial model (rs149354567 genotype G/GA): 0.91 (0.39; 2.08) | fewer cardiovascular events with colchicine compared to placebo (males, genotype C/C at rs10811106): 54% | Primary end point in males only, HR (95% CI) colchicine versus placebo (rs10811106 CT (16%), N total 182): 2.49 (0.92-6.75) | Coefficient, genetic association, chromosome 9 locus (primary efficacy end point) [5]: 1.705 | HR (hazard ratio), genetic association, chromosome 9 locus (primary efficacy end point) [5]: 5.50
